Activity calls are given as the source filed them. The rule behind the calls is not given here.
Key:
[1] = target: T1, Peroxisome proliferator-activated receptor alpha (Homo sapiens) (UniProt Q07869); assay: Binding affinity to PPARalpha (unknown origin) upto 10 uM by TR-FRET-based competitive binding assay
T1 sequence (whole entry): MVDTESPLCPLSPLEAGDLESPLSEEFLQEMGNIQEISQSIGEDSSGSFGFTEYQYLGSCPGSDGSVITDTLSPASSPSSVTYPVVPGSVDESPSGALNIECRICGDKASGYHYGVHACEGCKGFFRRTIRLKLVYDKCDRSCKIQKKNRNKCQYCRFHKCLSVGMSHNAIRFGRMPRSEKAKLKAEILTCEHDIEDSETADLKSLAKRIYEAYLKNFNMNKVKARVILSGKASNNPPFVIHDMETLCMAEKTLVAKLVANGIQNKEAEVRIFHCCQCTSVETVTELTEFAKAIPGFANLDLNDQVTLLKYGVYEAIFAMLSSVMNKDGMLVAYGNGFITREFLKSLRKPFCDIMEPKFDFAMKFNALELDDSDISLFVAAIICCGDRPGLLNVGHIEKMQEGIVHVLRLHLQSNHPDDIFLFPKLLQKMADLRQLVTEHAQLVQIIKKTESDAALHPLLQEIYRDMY

[2] = target: T2, Peroxisome proliferator-activated receptor delta (Homo sapiens) (UniProt Q03181); assay: Binding affinity to PPARdelta (unknown origin) upto 10 uM by TR-FRET-based competitive binding assay
T2 sequence (whole entry): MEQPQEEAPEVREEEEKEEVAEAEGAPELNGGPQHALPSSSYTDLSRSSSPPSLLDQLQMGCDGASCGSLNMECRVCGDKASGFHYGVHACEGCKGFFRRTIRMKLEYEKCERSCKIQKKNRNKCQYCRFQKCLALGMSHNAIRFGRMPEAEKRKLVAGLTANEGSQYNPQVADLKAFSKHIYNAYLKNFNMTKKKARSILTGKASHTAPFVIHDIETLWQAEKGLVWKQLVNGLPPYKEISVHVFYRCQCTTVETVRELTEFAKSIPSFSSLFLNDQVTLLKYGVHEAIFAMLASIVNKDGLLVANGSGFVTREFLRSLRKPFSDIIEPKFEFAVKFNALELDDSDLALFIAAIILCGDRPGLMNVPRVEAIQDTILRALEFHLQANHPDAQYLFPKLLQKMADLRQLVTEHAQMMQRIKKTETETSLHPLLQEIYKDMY

Mesenchymal stem cells [3] = assay: Induction of adiponectin secretion in human BMMSC cells at 10 uM in presence of IDX induction medium by ELISA assay; assay type: functional, cell-based
[4] = Induction of adiponectin secretion in human BMMSC cells in presence of IDX induction medium by ELISA assay; assay type: functional, cell-based; details: Mesenchymal stem cells
[5] = target: T3, Peroxisome proliferator-activated receptor gamma (Homo sapiens, UniProt P37231); assay: Partial agonist activity at PPARgamma (unknown origin) by TR-FRET-based competitive binding assay
T3 sequence (P37231 whole entry): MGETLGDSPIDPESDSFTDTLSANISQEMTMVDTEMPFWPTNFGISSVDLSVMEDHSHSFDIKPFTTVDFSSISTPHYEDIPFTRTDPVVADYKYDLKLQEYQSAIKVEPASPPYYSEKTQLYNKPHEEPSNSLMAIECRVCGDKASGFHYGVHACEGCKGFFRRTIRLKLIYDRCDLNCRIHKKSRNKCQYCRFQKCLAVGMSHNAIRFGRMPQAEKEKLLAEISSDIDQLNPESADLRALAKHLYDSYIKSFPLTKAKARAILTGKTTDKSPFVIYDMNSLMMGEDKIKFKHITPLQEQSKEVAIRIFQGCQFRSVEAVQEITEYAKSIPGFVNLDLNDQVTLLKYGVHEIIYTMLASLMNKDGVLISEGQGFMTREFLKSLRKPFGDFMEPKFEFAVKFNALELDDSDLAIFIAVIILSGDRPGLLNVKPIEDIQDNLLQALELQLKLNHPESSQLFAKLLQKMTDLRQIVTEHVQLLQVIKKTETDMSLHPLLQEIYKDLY

[6] = Induction of adiponectin secretion in human BMMSC cells assessed as fold increase in adiponectin level at 10 uM in presence of IDX induction medium by ELISA assay; assay type: functional, Mesenchymal stem cells
Mesenchymal stem cells [7] = assay: Induction of adiponectin secretion in human BMMSC cells assessed as increase in size of lipid droplets at 10 uM in presence of IDX induction medium by Oil Red O staining based inverted microscopic analysis; assay type: functional, cell-based
Mesenchymal stem cells [8] = assay: Induction of adiponectin secretion in human BMMSC cells assessed as increase in number of lipid droplets at 10 uM in presence of IDX induction medium by Oil Red O staining based inverted microscopic analysis; assay type: functional, cell-based
Mesenchymal stem cells [9] = assay: Upregulation of PPARgamma mRNA expression in human BMMSC cells at 10 uM in presence of IDX induction medium by qRT-PCR assay; assay type: functional, cell-based
Mesenchymal stem cells [10] = assay: Potency index, ratio of EC50 for chrysin to EC50 for test compound for induction of adiponectin secretion in human BMMSC cells; assay type: functional
Mesenchymal stem cells [11] = assay: Upregulation of ADIPOQ mRNA expression in human BMMSC cells at 10 uM in presence of IDX induction medium by qRT-PCR assay; assay type: functional, cell-based
[12] = target: T3, Peroxisome proliferator-activated receptor gamma; assay: Binding affinity to PPARgamma (unknown origin) by TR-FRET-based competitive binding assay
Mesenchymal stem cells [13] = assay: Upregulation of FABP4 mRNA expression in human BMMSC cells at 10 uM in presence of IDX induction medium by qRT-PCR assay; assay type: functional, cell-based
[14] = target: T3, Peroxisome proliferator-activated receptor gamma; assay: Agonist activity at PPARgamma LBD (unknown origin) assessed as increase in recruitment of coactivator RAP250 to PPARgamma LBD by TR-FRET-based nuclear receptor coactivator assay

Activity [1] | Activity [2] | EC50 [4] | Structure (SMILES) | Activity (Mesenchymal stem cells [3]) | fold change (FC) [6] | other results
inactive | inactive | – | COc1cc(OCc2ccccc2)cc2oc(-c3ccccc3)cc(=O)c12 | – | – | –
inactive | inactive | – | O=c1cc(-c2ccccc2)oc2cc(OCc3ccccc3)cc(O)c12 | Active | – | –
inactive | inactive | – | O=c1cc(-c2ccccc2)oc2cc(O)cc(OCc3ccc(Cl)cc3)c12 | Active | – | –
– | – | 0.5 µM | CCc1ccc(CCOc2ccc(CC3SC(=O)NC3=O)cc2)nc1 (centres undefined) [PIOGLITAZONE] | – | – | –
– | – | 4.7 µM | CCCc1nc2c(C)cc(-c3nc4ccccc4n3C)cc2n1Cc1ccc(-c2ccccc2C(=O)O)cc1 | – | – | Ki [5]: 1080 nM
inactive | inactive | 77.7 µM | O=c1cc(-c2ccccc2)oc2cc(O)cc(O)c12 [CHRYSIN] | Active | 2.3 | Activity (Mesenchymal stem cells [7]): Active; Activity (Mesenchymal stem cells [8]): Active
inactive | inactive | 4 µM | CC(C)=CCOc1cc(OCC=C(C)C)c2c(=O)cc(-c3ccccc3)oc2c1 | Active | 4.8 | Activity (Mesenchymal stem cells [7]): Active; Activity (Mesenchymal stem cells [9]): Active; Ratio EC50 (Mesenchymal stem cells [10]): 9; Activity (Mesenchymal stem cells [11]): Active; Ki [12]: 370 nM; Activity (Mesenchymal stem cells [8]): Active; Activity (Mesenchymal stem cells [13]): Active
inactive | inactive | – | O=c1cc(-c2ccccc2)oc2cc(O)cc(OCc3ccccc3)c12 | Active | – | –
inactive | inactive | 8.5 µM | CC(C)=CCOc1cc(OCc2ccccc2)c2c(=O)cc(-c3ccccc3)oc2c1 | Active | 3.8 | EC50 [14]: 19.6 µM; Activity (Mesenchymal stem cells [7]): Active; Activity (Mesenchymal stem cells [9]): Active; Ratio EC50 (Mesenchymal stem cells [10]): 9; Activity (Mesenchymal stem cells [11]): Active; Ki [12]: 550 nM; Activity (Mesenchymal stem cells [8]): Active; Activity (Mesenchymal stem cells [13]): Active
inactive | inactive | – | CC(C)=CCOc1cc(OCc2ccccc2)cc2oc(-c3ccccc3)cc(=O)c12 | Active | 3.3 | –
inactive | inactive | – | C=CCOc1cc(O)cc2oc(-c3ccccc3)cc(=O)c12 | Active | – | –
inactive | inactive | – | O=c1cc(-c2ccccc2)oc2cc(O)cc(OCc3ccc(F)cc3)c12 | Active | – | –
inactive | inactive | – | O=c1cc(-c2ccccc2)oc2cc(OCc3ccccc3)cc(OCc3ccccc3)c12 | Active | – | –

Source: ChEMBL document CHEMBL5252661 (ACS Med Chem Lett, 2023)
